Legend:
[1] = ROS-scavenging activity (SIN-1, DCFH); conditions: 40 μM, SIN-1 10 μM
Protocol: UV-A radiation induces ROS generation substantially, and oxidative stress accelerates melanin formation in organisms. Thus, the ROS-scavenging ability of (Z)-BBTT analogs was examined to determine whether these analogs have an auxiliary ability to scavenge ROS. 3-Morpholinosydnonimine (SIN-1; 10 μM) was used as a ROS generating substance, and Trolox (40 μM) was used as a positive reference standard.
The test samples ((Z)-BBTT analogs 1–12 and Trolox [positive reference standard]) and 3-morpholinosydnonimine (SIN-1) were dissolved in DMSO and PBS, respectively. To prepare 2′,7′-dichlorodihydrofluorescein (DCFH) solution, PBS (50 mM; 4.9 mL, pH 7.4) and DCFH diacetate (2.5 mM; 0.05 mL) were mixed with esterase (15 units/10 mL; 0.05 mL). After storage for 30 min at 20 °C, the mixture was placed in the dark until further use. SIN-1 (10 µL) was added to each well of a 96-well black plate containing PBS (180 µL) and test sample (10 µL), and the plate was placed in the dark for 5 min. The prepared DCFH solution (50 µL) was added to each well of the black plate. The fluorescence of each well was recorded at 535 nm using a microplate reader (Berthold Advances GmbH & Co., Bad Wildbad, Germany) at an excitation wavelength of 485 nm. The test samples and SIN-1 were tested at final concentrations of 40 and 10 μM, respectively.

B16F10 cell tyrosinase = biological target: T1, B16F10 cell tyrosinase (Mus musculus, UniProt P11344); assay: In situ cellular tyrosinase activity in B16F10 cells (L-DOPA staining); assay type: cell-based, murine
T1 construct: endogenous in cells; host or cells: B16F10 murine melanoma cells stimulated with α-MSH and IBMX
T1 sequence (P11344 19-533): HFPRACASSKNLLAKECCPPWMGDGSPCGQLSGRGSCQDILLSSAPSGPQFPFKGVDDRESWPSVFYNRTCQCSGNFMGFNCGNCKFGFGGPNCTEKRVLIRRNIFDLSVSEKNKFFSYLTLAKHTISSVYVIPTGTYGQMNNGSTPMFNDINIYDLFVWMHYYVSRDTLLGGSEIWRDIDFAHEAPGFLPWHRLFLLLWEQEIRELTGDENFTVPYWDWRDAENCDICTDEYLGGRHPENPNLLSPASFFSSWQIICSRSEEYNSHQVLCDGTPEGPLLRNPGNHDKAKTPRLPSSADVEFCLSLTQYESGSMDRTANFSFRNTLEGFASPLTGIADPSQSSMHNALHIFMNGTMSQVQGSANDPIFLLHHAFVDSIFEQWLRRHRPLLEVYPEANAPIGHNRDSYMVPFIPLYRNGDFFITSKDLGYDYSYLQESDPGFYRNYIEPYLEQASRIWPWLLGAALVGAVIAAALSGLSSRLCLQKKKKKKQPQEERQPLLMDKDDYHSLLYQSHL
Protocol: To identify the in situ cellular tyrosinase inhibitory activity of analogs 1 and 3, B16F10 cells and L-DOPA were used as the experimental target cells and substrate for melanin synthesis, respectively. […] B16F10 cells were photographed after 2 h of treatment with excess L-DOPA, and the darkness of the cells was measured using the CS analyzer program (ATTO, Tokyo, Japan). Analogs 1 and 3 were used at 2, 5, and 10 μM.
After 1 h, the cells were exposed to 1 μM α-MSH and 200 μM IBMX and cultivated under normal cell culture conditions for 72 h. Cultured cells were fixed using a 4% paraformaldehyde solution for 40 min, washed twice with PBS, and permeabilized using 0.1% Triton X-100 for 2 min. L-DOPA solution (2 mM; 500 μL) was added to each well after washing twice with PBS. After the plate was placed for 2 h at 37 °C, the images for cell staining were acquired using a camera attached to a microscope (Motic, Hong Kong).

## O=C1/C(=C/c2ccc(O)cc2O)SC(=S)N1Cc1ccccc1 [Compound 3, (Z)-3-Benzyl-5-(2,4-dihydroxybenzylidene)-2-thioxothiazolidin-4-one]
[1]
  ROS-scavenging activity (SIN-1-induced ROS levels): equipotent to that of Trolox
B16F10 cell tyrosinase; 10 μM, L-DOPA staining
  relative dark area of cells compared with kojic acid at the same concentration: significantly less than that of kojic acid
B16F10 cell tyrosinase; kojic acid 10 μM, analogs 2, 5 and 10 μM, α-MSH + IBMX, 72 h
  number of cells strongly stained with melanin: reduced the number of strongly stained cells in a concentration-dependent manner

— article PMC11820736, “Design, Synthesis, and Anti-Tyrosinase, Anti-Melanogenic, and Antioxidant Activities of Novel (Z)-3-Benzyl-5-Benzylidene-2-Thioxothiazolidin-4-One Analogs” (Molecules, 2025)
